Patent publication US20100010058A1, “Azoline Compounds for Combating Arthropod Pests” (BASF SE, priority 2006, published 2010)

Experiments:
Format in all cases: in vivo
[1] = tested on: Cotton Aphid (Aphis gossypii); experiment: Activity against Cotton Aphid (Aphis gossypii), cotton cotyledon dip test; details: 120 h, cotton cotyledons dipped, mortality counts after 5 days
Description: 2.2 Activity against Cotton Aphid (Aphis gossypii)
The active compounds were formulated in acetone/water (1:1) and 100 ppm Kinetic™ surfactant. Cotton plants at the cotyledon stage (one plant per pot) were infested by placing a heavily infested leaf from the main colony on top of each cotyledon. The aphids were allowed to transfer to the host plant overnight, and the leaf used to transfer the aphids was removed. The cotyledons were dipped in the test solution and allowed to dry. After 5 days, mortality counts were made.

[2] = tested on: Vetch Aphid (Megoura viciae); experiment: Activity against Vetch Aphid (Megoura viciae), bean leaf disk microtiterplate test; details: foliar, 144 h, bean leaf disks sprayed, adult aphids, 6 days, compared to 0% mortality of untreated controls
Protocol: 2.1 Activity against Vetch Aphid (Megoura viciae)
The active compounds were formulated in DMSO/water (1:3). Bean leaf disks were placed into microtiterplates filled with 0.8% agar-agar and 2.5 ppm OPUS™. The leaf disks were sprayed with 2.5 μl of the test solution and 5 to 8 adult aphids were placed into the microtiterplates which were then closed and kept at 22-24° C. and 35-45% under fluorescent light for 6 days. Mortality was assessed on the basis of vital, reproduced aphids. Tests were replicated 2 times.

[3] = tested on: Green Peach Aphid (Myzus persicae); experiment: Activity against Green Peach Aphid (Myzus persicae), pepper plant leaf dip test; details: foliar, 120 h, pepper plant leaves dipped, after 5 days, in comparison with untreated controls
Protocol: 2.3. Activity against Green Peach Aphid (Myzus persicae)
Pepper plants in the 2nd leaf-pair stage (variety ‘California Wonder’) are infested with approximately 40 laboratory-reared aphids by placing infested leaf sections on top of the test plants. The leaf sections are removed after 24 hours. The leaves of the intact plants are dipped into gradient solutions of the test compound. Aphid mortality on the treated plants, relative to mortality on check plants, is determined after 5 days.

[4] = tested on: Brown Planthopper (nilaparvata lugens); experiment: Activity against Brown Planthopper (nilaparvata lugens), sprayed rice plants; details: assessed 24, 48 and 72 hours after treatment, in comparison with untreated controls
Protocol: 2.4 Activity against Brown Planthopper (nilaparvata lugens)
The active compounds were formulated as a 20:80 acetone:water solution. Surfactant (Alkamuls EL 620) was added at the rate of 0.1% (vol/vol).
Potted rice plants of 3-4 weeks of age are sprayed with 10 ml of the test solution using air driven hand atomizer (Devillbis atomizer) at 1.7 bar. The treated plants are allowed to dry for about 1 hour and covered with Mylar cages. The plants are inoculated with 10 adults of the specie (5 male and 5 females) and kept at 25-27° C. and 50-60% humidity for 3 days. Mortality is assed after 24, 48 and 72 hours after treatment. Dead insects are usually found in the water surface. Each treatment is replicated once.

Compound	mortality at 300 ppm [1] [%]	mortality at 2500 ppm [2] [%]	mortality at 300 ppm [3] [%]	mortality at 300 ppm [4] [%]
Cc1cccc(CN(NC2=NCCS2)c2cccc(Cl)c2Cl)c1 [Example 7, N-(2,3-Dichloro-phenyl)-N′-(4,5-dihydro-thiazol-2-yl)-N-(3-methyl-benzyl)-hydrazine]	> 50	> 75	> 50	≥ 50
CC(C)=CCN(NC1=NCCS1)c1cccc(C)c1C [Example 30, N′-(4,5-Dihydro-thiazol-2-yl)-N-(2,3-dimethyl-phenyl)-N-(3-methyl-but-2-enyl)-hydrazine]		> 75		
